This is an account of results in article PMC11915075, “Dibenzo [a, c] phenazin-11-yl(phenyl) methanone (SBLJ23), a novel selective inhibitor targeting JAK2^V617F mutation in myeloproliferative neoplasms” (Oncology Research, 2025).

The target of this experiment is JAK2 (Homo sapiens, UniProt O60674). Description: biochemical.

Each structure is given as a SMILES string.

Sequence of JAK2 (O60674 whole entry): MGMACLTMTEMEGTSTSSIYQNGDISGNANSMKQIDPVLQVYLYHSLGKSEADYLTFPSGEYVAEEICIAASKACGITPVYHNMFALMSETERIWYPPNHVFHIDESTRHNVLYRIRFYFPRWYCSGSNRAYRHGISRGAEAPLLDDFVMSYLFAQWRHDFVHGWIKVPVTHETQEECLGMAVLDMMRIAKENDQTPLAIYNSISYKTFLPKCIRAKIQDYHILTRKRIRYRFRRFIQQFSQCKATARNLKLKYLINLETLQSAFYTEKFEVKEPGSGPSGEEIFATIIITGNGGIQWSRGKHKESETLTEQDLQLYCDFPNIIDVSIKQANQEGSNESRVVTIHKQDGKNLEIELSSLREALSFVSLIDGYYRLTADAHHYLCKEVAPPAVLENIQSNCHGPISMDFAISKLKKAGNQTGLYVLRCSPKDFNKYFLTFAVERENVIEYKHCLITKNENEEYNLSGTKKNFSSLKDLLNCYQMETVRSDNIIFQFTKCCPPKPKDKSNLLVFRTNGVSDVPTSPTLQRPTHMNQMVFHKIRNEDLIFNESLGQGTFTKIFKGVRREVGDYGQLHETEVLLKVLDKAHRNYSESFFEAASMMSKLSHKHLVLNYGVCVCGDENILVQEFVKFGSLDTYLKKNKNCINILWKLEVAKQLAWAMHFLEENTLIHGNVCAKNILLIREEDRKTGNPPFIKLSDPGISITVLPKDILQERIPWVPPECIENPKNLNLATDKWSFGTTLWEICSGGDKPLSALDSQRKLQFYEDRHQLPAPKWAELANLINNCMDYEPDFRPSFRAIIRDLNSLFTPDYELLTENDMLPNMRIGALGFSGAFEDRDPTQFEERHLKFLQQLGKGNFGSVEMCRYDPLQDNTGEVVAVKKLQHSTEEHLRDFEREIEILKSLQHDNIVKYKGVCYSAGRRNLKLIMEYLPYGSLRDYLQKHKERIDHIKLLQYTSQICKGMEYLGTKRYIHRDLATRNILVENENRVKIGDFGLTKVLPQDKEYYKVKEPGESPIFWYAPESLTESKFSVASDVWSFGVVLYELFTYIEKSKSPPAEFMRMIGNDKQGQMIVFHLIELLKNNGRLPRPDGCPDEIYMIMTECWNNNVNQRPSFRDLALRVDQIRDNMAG

For `O=C(c1ccccc1)c1ccc2nc3c4ccccc4c4ccccc4c3nc2c1` [SBLJ23, Dibenzo [a, c] phenazin-11-yl(phenyl) methanone], the IC50 was found to be 522 nM.

In general, IC50 refers to the midpoint of a concentration-inhibition curve. Higher therefore signals weaker potency in that assay.
